Tests used:
[1] = biological target: T1, integrin α2β1 (Homo sapiens, UniProt P05556+P17301); assay: Cell adhesion assay, adhesion to collagen in vitro (cell type not stated for these values); type: cell-based; set-up: endogenous in cells; conditions: compared with c15
Method: Cell adhesion Assay: Ninety-six-well flat-bottomed tissue culture plates were coated with rat tail collagen I for 1 hour at 37° C. After incubation, wells were blocked with 1% BSA at 37° C. for 1 hour. Control wells were filled with 1% BSA. HT1080 (human fibrosarcoma) cells (or human airway smooth muscle cells) were detached and resuspended in serum-free DMEM. Cells were incubated with anti-integrin alpha2 antibody control or 10-fold dilutions of each compound with a starting concentration of 10 uM for 15 minutes at 4° C. before plating. The plates were centrifuged at 10 g for 5 minutes before incubation for 1 hour at 37° C. in humidified 5% CO2. Nonadherent cells were removed by centrifugation (top side down) at 10 g for 5 minutes. Attached cells were stained with 0.5% crystal violet, and the wells were washed with PBS. The relative number of cells in each well was evaluated after solubilization in 40 μl of 2% Triton X-100 by measuring absorbance at 595 nm in a microplate reader. All determinations were carried out in triplicate.

[2] = biological target: T1, integrin α2β1; assay: HT 1080 cell adhesion assay on rat tail collagen I; type: cell-based; set-up: HT1080 (human fibrosarcoma) cells (or human airway smooth muscle cells) were detached and resuspended in serum-free DMEM; endogenous in cells; host or cells: HT1080 human fibrosarcoma cells; conditions: HT1080 (human fibrosarcoma) cells on rat tail collagen I, absorbance at 595 nm, triplicate; read-out: IC50s from HT 1080 Cell adhesion assay

T1 sequence (P17301 30-1181): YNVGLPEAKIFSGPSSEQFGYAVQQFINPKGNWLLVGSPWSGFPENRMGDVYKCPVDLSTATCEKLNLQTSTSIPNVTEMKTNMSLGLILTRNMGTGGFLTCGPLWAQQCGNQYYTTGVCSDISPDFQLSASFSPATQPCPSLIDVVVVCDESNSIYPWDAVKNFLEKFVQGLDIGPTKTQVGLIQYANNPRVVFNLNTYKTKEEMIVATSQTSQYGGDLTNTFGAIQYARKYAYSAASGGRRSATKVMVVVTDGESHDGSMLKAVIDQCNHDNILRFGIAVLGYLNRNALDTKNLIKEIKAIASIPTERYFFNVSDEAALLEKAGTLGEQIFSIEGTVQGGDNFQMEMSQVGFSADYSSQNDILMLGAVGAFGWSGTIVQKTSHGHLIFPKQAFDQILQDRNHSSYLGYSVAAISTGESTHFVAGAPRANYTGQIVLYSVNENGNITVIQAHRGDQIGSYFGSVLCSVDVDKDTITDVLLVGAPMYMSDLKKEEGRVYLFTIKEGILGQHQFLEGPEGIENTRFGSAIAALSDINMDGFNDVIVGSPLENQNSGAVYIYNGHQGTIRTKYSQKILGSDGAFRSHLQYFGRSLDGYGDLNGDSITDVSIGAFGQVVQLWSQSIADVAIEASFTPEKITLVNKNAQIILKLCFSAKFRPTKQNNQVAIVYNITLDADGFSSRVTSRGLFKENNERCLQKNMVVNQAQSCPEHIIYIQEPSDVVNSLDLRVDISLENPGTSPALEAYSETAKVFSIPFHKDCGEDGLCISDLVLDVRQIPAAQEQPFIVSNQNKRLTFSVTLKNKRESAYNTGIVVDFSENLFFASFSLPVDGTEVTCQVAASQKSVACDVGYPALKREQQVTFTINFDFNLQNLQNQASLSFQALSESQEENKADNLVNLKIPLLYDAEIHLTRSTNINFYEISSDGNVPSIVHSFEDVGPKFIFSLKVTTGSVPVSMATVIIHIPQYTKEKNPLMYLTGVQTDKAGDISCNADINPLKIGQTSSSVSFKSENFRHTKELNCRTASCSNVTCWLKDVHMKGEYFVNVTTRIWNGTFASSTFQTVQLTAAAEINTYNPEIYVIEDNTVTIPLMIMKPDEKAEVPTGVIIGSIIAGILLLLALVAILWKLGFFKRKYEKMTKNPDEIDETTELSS
T1 sequence (P05556 21-798): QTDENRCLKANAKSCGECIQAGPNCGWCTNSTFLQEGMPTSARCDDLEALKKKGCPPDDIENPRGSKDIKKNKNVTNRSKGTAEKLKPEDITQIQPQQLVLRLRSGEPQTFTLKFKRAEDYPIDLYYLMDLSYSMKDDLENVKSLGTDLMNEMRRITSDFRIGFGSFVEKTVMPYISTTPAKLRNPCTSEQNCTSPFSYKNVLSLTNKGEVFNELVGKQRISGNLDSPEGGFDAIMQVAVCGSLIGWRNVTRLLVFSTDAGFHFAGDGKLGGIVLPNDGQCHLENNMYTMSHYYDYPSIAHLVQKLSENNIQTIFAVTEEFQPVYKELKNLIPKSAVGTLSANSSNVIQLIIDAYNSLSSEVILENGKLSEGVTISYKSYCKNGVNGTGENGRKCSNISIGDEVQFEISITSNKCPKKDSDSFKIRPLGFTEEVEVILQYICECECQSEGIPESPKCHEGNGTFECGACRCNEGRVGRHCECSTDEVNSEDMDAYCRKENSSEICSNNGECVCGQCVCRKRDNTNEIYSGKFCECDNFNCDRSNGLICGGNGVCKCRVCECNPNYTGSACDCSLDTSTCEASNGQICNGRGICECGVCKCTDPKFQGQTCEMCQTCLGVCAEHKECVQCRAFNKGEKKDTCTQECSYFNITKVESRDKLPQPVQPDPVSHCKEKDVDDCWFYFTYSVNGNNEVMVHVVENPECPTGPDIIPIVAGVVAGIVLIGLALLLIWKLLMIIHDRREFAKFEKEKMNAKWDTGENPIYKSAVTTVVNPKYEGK

| SMILES | fold less potent than c15 in a cell adhesion assay [1] | IC50 [2] |
| --- | --- | --- |
| O=C(NCc1ccccc1)NC[C@H](NC(=O)c1c(Cl)cccc1Cl)C(=O)O [A2-4, (S)-3-(3-benzylureido)-2-(2,6-dichlorobenzamido)propanoic acid] | 2 fold | – |
| COc1ccc(CNC(=O)NC[C@H](NC(=O)c2c(Cl)cccc2Cl)C(=O)O)cc1 [KZ-1-20, (S)-2-(2,6-dichlorobenzamido)-3-(3-(4-methoxybenzyl)ureido)propanoic acid] | – | > 100 µM |
| O=C(NC[C@H](NC(=O)c1c(Cl)cccc1Cl)C(=O)O)NC1Cc2ccccc2C1 [A2-84, (S)-2-(2,6-dichlorobenzamido)-3-(3-(2,3-dihydro-1H-inden-2-yl)ureido)propanoic acid] | – | 10 to 100 µM |

Next, values leading:

| fold less potent than c15 in a cell adhesion assay [1] | IC50 [2] | SMILES |
| --- | --- | --- |
| – | 10 to 100 µM | CC(NC(=O)NC[C@H](NC(=O)c1c(Cl)cccc1Cl)C(=O)O)C12CC3CC(CC(C3)C1)C2 (stereo partly drawn) [A2-132, (2S)-3-(3-(1-(adamantan-1-yl)ethyl)ureido)-2-(2,6-dichlorobenzamido)propanoic acid] |
| – | 10 to 100 µM | O=C(NCC1CC2CCC1C2)NC[C@H](NC(=O)c1c(Cl)cccc1Cl)C(=O)O (stereo partly drawn) [A2-174, (2S)-3-(3-(bicyclo[2.2.1]heptan-2-ylmethyl)ureido)-2-(2,6-dichlorobenzamido)propanoic acid] |

Reference: patent US11597727B2 (THE REGENTS OF THE UNIVERSITY OF CALIFORNIA, priority 2018, dated 2023)
